Assay results published in EPA's ToxValDB 9.5 (doi:10.2903/j.efsa.2006.83r).
Converted amounts (≈) assume the structure as drawn. “And” between values parts separate entries of the source, which are not always exact repeats. Equal values may be shown once.

Tests used:
Aphidius rhopalosiphi = experiment: LR50; higher = less toxic; conditions: acute; duration: 48 hours; mortality
Lepomis macrochirus = conditions: acute; duration: 96 hours; mortality
Tagia sp. = conditions: acute; duration: 14 days; mortality
Daphnia magna = conditions: chronic/long-term; duration: 21 days
Pimephales promelas = conditions: chronic/long-term
Apis mellifera = conditions: acute; duration: 48 hours; dermal; mortality
Rattus norvegicus = conditions: acute; oral; gavage; M/F; clinical chemistry

`CNC(=O)ON=C(C)SC` [Methomyl] gave an LR50 (Aphidius rhopalosiphi) of 0.25 g/ha, an LC50 (Lepomis macrochirus) of 0.63 mg/L (≈ 3.88 µM) and an NOEC (Anas platyrhynchos; reproductive) of 150 mg/kg. The LC50 (Anas platyrhynchos; short-term, oral, feed, mortality) was 3950 mg/kg, the LD50 (Colinus virginianus; acute, oral, mortality) was 24.2 mg/kg and 30.4 mg/kg and the NOEC (Colinus virginianus; reproduction developmental) was 150 mg/kg-day. It also gave an LC50 (Tagia sp.) of 19 mg/kg, an LD50 (acute, oral, unspecified, mortality) of 30 mg/kg and an NOAEL (reproductive, development) of 75 mg/kg. For the same compound, the NOEC (Daphnia magna) was 0.0016 mg/L, the NOEC (Pimephales promelas) was 0.073 mg/L and the LD50 (Apis mellifera) was 0.16 µg/piece. For the same compound, the NOAEL (Rattus norvegicus) was 0.25 mg/kg-day.
